Results published in patent US20140004243A1, “SALTY TASTE ENHANCER” (AJINOMOTO CO., INC., priority 2011, published 2014).

Target: T1, Human ENaC δ, β and γ subunit (Homo sapiens, UniProt P51168+P51170+P51172)
T1 construct: expressed in transfected cells; host or cells: Xenopus laevis (African clawed frog) oocytes injected with cRNA
T1 sequence (P51172 1-802): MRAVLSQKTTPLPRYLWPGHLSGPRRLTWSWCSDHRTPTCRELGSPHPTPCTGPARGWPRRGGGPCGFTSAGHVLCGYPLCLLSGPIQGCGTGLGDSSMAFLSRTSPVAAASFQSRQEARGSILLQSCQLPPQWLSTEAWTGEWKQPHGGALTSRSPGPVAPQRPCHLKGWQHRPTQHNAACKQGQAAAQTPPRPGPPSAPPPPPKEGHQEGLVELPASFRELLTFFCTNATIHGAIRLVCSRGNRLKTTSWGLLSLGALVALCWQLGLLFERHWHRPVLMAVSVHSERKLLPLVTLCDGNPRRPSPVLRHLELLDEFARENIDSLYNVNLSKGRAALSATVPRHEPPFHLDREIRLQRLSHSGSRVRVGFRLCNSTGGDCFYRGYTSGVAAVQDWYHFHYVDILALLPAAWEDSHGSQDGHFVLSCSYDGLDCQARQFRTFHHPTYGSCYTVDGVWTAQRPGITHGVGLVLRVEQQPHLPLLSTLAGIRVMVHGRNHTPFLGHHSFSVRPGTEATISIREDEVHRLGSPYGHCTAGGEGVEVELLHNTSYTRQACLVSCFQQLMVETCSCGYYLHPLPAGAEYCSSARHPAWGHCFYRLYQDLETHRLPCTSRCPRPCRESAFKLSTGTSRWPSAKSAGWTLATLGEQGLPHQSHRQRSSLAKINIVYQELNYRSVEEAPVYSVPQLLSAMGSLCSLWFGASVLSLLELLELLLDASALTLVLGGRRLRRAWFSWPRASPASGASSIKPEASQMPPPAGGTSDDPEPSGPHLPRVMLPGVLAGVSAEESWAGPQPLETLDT
T1 sequence (P51168 1-640): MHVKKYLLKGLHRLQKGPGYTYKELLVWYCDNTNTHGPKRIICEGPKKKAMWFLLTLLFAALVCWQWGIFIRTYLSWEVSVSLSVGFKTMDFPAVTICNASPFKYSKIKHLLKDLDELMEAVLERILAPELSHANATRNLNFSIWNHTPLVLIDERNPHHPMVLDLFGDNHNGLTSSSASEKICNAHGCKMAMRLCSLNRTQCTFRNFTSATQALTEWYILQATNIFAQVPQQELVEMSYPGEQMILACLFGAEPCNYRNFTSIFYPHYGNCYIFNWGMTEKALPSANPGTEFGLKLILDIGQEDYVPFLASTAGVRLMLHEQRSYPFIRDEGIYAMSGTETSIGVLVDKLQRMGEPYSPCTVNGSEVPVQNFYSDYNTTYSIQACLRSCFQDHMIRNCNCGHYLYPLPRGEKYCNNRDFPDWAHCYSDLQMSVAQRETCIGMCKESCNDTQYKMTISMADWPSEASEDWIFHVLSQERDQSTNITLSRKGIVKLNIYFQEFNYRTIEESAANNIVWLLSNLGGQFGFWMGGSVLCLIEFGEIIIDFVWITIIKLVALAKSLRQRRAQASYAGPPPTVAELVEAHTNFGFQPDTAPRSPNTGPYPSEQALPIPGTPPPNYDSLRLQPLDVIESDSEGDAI
T1 sequence (P51170 1-649): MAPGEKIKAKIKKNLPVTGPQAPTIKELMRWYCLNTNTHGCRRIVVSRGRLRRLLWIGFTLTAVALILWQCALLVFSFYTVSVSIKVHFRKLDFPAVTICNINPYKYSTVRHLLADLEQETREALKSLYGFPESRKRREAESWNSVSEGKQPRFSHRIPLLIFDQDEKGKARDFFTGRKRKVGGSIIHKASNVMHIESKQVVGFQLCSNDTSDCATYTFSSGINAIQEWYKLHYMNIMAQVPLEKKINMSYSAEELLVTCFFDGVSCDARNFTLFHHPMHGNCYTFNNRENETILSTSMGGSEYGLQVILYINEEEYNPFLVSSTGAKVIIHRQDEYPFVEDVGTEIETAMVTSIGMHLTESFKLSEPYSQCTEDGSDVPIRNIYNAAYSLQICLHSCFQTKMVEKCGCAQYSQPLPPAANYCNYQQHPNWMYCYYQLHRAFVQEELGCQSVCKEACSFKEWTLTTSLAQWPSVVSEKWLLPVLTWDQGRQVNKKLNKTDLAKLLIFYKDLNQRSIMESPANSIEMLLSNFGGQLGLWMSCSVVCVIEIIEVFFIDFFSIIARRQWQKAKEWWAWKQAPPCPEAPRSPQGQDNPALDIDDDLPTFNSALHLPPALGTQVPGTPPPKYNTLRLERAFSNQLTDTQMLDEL
Experiment: Measurement of ENaC activation potency (MED) in ENaC-expressing oocyte, Two Electrode Voltage Clamp
Format: cell-based
Conditions: minimum effective dose at which current started to increase; ENaC-expressing African clawed frog oocyte; smaller MED = higher ENaC activation potency
Outline: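 Xenopus oocytes injected with human ENaC δ, β and γ cRNA, cultured 16–72 hr, voltage-clamped 30 mV below resting potential in ND96 (pH 7.6) by two-electrode voltage clamp. Compounds (0.1 nM–300 μM) perfused at rising concentrations every 3 min. MED = lowest dose raising current ≥10%, or raising 5 μM capsazepine-evoked current ≥25%, whichever smaller.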

| Structure (SMILES) | MED [µM] |
| --- | --- |
| C[C@@H](NC(=S)NCCc1ccccc1)c1ccccc1 [Example 11] | 0.3 |
| OC[C@@H](NC(=S)NCCc1ccccc1)c1ccccc1 [Example 51] | 0.3 |
| Oc1cc2c(cc1O)CN(C(=S)NCCc1ccc(Cl)cc1)CCC2 [capsazepine] | 3 |
